Reference: BindingDB's records for doi:10.1021/acs.jmedchem.6b01315 (Constellation Pharmaceuticals, 2016)

The compounds below were run against Histone-lysine N-methyltransferase EZH2 (Homo sapiens, UniProt Q15910) (assay: Inhibition of EZH2 Y641F mutant in PRC2 complex (unknown origin) using RKQLATKAARK(Me3)SAPATGGVKKP-NH2 peptide substrate preincubated for 30 mins followed by addition of [3H]-SAM measured after 2 hrs by Topcount scintillation proximity assay).
Compound `COc1cc(C)[nH]c(=O)c1CNC(=O)c1c(C)n([C@H](C)C2CCN(C3COC3)CC2)c2ccccc12` has an IC50 of 1.7 nM. `COc1cc(C)[nH]c(=O)c1CNC(=O)c1c(C)n([C@H](C)C2CCN(CC(F)F)CC2)c2ccccc12` was tested, and the IC50 was 3.8 nM. Work on `COc1cc(C)[nH]c(=O)c1CNC(=O)c1c(C)n([C@H](C)C2CCNCC2)c2ccccc12` yielded an IC50 of 3.9 nM. `COc1cc(C)[nH]c(=O)c1CNC(=O)c1c(C)n([C@H](C)C2CCN(C(=O)N(C)C)CC2)c2ccccc12` showed an IC50 of 8.9 nM. With `CCOC(=O)CN1CCC([C@@H](C)n2c(C)c(C(=O)NCc3c(OC)cc(C)[nH]c3=O)c3ccccc32)CC1` the IC50 was 2.5 nM. Compound `COc1cc(C)[nH]c(=O)c1CNC(=O)c1c(C)n([C@H](C)C2CCN(CC(F)(F)C(F)F)CC2)c2ccccc12` has an IC50 of 3.3 nM. `COc1cc(C)[nH]c(=O)c1CNC(=O)c1c(C)n([C@H](C)C2CCN(C(=O)OC(C)C)CC2)c2ccccc12` showed an IC50 of 4.1 nM. Compound `COc1cc(C)[nH]c(=O)c1CNC(=O)c1c(C)n([C@H](C)C2CCN(C)CC2)c2ccccc12` has an IC50 of 1.7 nM. With `COc1cc(C)[nH]c(=O)c1CNC(=O)c1c(C)n([C@H](C)C2CCN(CCC(F)(F)F)CC2)c2ccccc12` the IC50 was 4.8 nM. In the case of `COc1cc(C)[nH]c(=O)c1CNC(=O)c1c(C)n([C@H](C)C2CCN(C(=O)C(C)C)CC2)c2ccccc12`, the IC50 is reported as 16 nM.
